This is an account of results in ChEMBL document CHEMBL4689842, “EUbOPEN Chemogenomics Library wave 1” (2021).

What all share (assay type): toxicity, cell-based
The test system of series [1] is HEK-293T. Put plainly: Incucyte cell viability with HEK293T. The settings on record: human, 10 µM, compound concentration 10 uM.
Series [2] deals with U2OS. Nature of the series: Incucyte cell viability with U2OS. The settings on record: human, 10 µM, compound concentration 10 uM.
Series [3] relates to Fibroblast. Put plainly: Incucyte cell viability with human fibroblast. The settings on record: 10 µM, compound concentration 10 uM.
[4] abbreviates: 0 h, replicate number 1, timepoint 0 hours.
[5] abbreviates: 0 h, replicate number 2, timepoint 0 hours.
Setting [6] is: 24 h, replicate number 2, timepoint 24 hours.
[7] abbreviates: 6 h, replicate number 1, timepoint 6 hours.
Setting [8] is: 12 h, replicate number 1, timepoint 12 hours.
Where [9] appears, read: 18 h, replicate number 1, timepoint 18 hours.
[10] abbreviates: 24 h, replicate number 1, timepoint 24 hours.
Where [11] appears, read: 6 h, replicate number 2, timepoint 6 hours.
The mark [12] stands for this setting: 18 h, replicate number 2, timepoint 18 hours.
The mark [13] stands for this setting: 12 h, replicate number 2, timepoint 12 hours.
Also: filed as whole numbers so only -1 and 0 and 1 occur.

Take `O=C(NOC[C@H](O)CO)c1ccc(F)c(F)c1Nc1ccc(I)cc1F` [MIRDAMETINIB]: the “Growth Rate” value in series [1] (setting [4]) stood at 0; in series [1] (setting [5]), 1; in series [1] (setting [6]), 1; in series [2] (setting [5]), 0; in series [2] (setting [7]), 0; in series [2] (setting [8]), 0. For the same compound, the “Growth Rate” value is listed as 0 in series [2] (setting [9]); 0 in series [2] (setting [10]); 0 in series [3] (setting [5]); 1 in series [3] (setting [7]); 0 in series [3] (setting [11]); 1 in series [3] (setting [8]). In addition, the “Growth Rate” value in series [3] (setting [9]) and in series [3] (setting [10]) was 1 throughout.

In the case of `CO[C@@H]1COCC[C@@H]1N[C@@H]1CC[C@@](C(=O)N2CCc3ncc(C(F)(F)F)cc3C2)(C(C)C)C1` [MK-0812], the “Growth Rate” value turned out to be 0 in series [1] (setting [4]); 1 in series [1] (setting [7]); 0 in series [1] (setting [11]); 1 in series [1] (setting [8]); 1 in series [1] (setting [9]); 1 in series [1] (setting [10]). Further, the “Growth Rate” value in series [2] (setting [4]) came out at 0; in series [2] (setting [11]) it was 0; in series [2] (setting [8]) it was 1; in series [2] (setting [9]) it was 1; in series [2] (setting [10]) it was 1; in series [3] (setting [4]), 0. Moreover, the “Growth Rate” value is listed as 1 in series [3] (setting [5]); 1 in series [3] (setting [7]); 0 in series [3] (setting [11]); 1 in series [3] (setting [8]); 1 in series [3] (setting [9]); 0 in series [3] (setting [12]). Besides, the figures for the “Growth Rate” value in series [3] (setting [10]) and in series [3] (setting [6]) were 1 and 0, respectively.

Take `CC1(C)CNc2cc(NC(=O)c3cccnc3NCc3ccncc3)ccc21.O=P(O)(O)O.O=P(O)(O)O` [MOTESANIB DIPHOSPHATE]: the “Growth Rate” value was 0 in series [1] (setting [4]); 0 in series [2] (setting [4]); 1 in series [2] (setting [5]); 1 in series [2] (setting [7]); 0 in series [2] (setting [11]); 1 in series [2] (setting [8]). Besides, the “Growth Rate” value was found to be 1 in series [2] (setting [9]); 1 in series [2] (setting [10]); 0 in series [2] (setting [6]); 0 in series [3] (setting [4]); 0 in series [3] (setting [11]); 1 in series [3] (setting [8]). Moreover, the “Growth Rate” value in series [3] (setting [13]) was 0; in series [3] (setting [9]) it was 1; in series [3] (setting [12]), 0; in series [3] (setting [10]) it was 1; in series [3] (setting [6]) it was 0.

On to `N#CC1(c2ccccn2)CCN(Cc2cc(C(=O)N3CCCC3)c(=O)n3ccccc23)CC1` [MSD-M1PAM-NC], for which the “Growth Rate” value was determined as 1 in series [1] (setting [4]); 0 in series [1] (setting [5]); 1 in series [1] (setting [7]); 0 in series [1] (setting [11]); 0 in series [1] (setting [8]); 0 in series [1] (setting [9]). Besides, the “Growth Rate” value amounted to 0 in series [1] (setting [10]); 0 in series [2] (setting [5]); 0 in series [2] (setting [8]); 0 in series [2] (setting [9]); 0 in series [2] (setting [10]); 1 in series [2] (setting [6]). Moreover, the “Growth Rate” value in series [3] (setting [4]) is on record as 0; in series [3] (setting [11]) it was 1; in series [3] (setting [8]) it was 1; in series [3] (setting [9]), 1; in series [3] (setting [12]), 0; in series [3] (setting [10]), 0.

Turning to `CCCc1c(-c2ccc(O)cc2)nn(-c2ccc(O)cc2)c1-c1ccc(O)cc1` [PROPYLPYRAZOLETRIOL], the “Growth Rate” value in series [1] (setting [4]) came to 0; in series [1] (setting [7]), 1; in series [1] (setting [8]) it was 1; in series [1] (setting [9]), 1; in series [1] (setting [10]), 0; in series [1] (setting [6]), 1. Moreover, the “Growth Rate” value in series [2] (setting [4]) came out at 1; in series [2] (setting [5]), 0; in series [2] (setting [11]) it was 1; in series [2] (setting [8]), 1; in series [2] (setting [9]) it was 0; in series [2] (setting [12]) it was 1. Also, the “Growth Rate” value was 1 in series [2] (setting [10]); 0 in series [3] (setting [4]); 0 in series [3] (setting [7]); 0 in series [3] (setting [8]); 1 in series [3] (setting [13]); 0 in series [3] (setting [9]). Besides, the “Growth Rate” value stood at 1 in series [3] (setting [12]), 0 in series [3] (setting [10]) and 1 in series [3] (setting [6]).

Take `COc1cccc(OC)c1-c1cc(C(=O)NC2(C(=O)O)C3CC4CC(C3)CC2C4)nn1-c1ccnc2cc(Cl)ccc12` (centres undefined) [REMINERTANT]: the “Growth Rate” value amounted to 0 in series [1] (setting [4]); 0 in series [1] (setting [7]); 1 in series [1] (setting [11]); 0 in series [1] (setting [8]); 1 in series [1] (setting [13]); 0 in series [1] (setting [9]). The “Growth Rate” value turned out to be 0 in series [1] (setting [10]); 1 in series [2] (setting [4]); 1 in series [2] (setting [11]); 1 in series [2] (setting [8]); 0 in series [2] (setting [9]); 1 in series [2] (setting [12]). Further, the “Growth Rate” value is 0 in series [2] (setting [10]); 1 in series [2] (setting [6]); 0 in series [3] (setting [4]); 1 in series [3] (setting [11]); 1 in series [3] (setting [8]); 0 in series [3] (setting [13]). The “Growth Rate” value in series [3] (setting [9]) is on record as 1; in series [3] (setting [12]) it was 0; in series [3] (setting [10]) it was 1; in series [3] (setting [6]), 0.

For `CO[C@H]1/C=C/O[C@@]2(C)Oc3c(C)c(O)c4c(O)c(c(/C=N/N5CCN(C)CC5)c(O)c4c3C2=O)NC(=O)/C(C)=C\C=C\[C@H](C)[C@H](O)[C@@H](C)[C@@H](O)[C@@H](C)[C@H](OC(C)=O)[C@@H]1C` [RIFAMPIN], the “Growth Rate” value is reported as 0 in series [1] (setting [4]); 1 in series [1] (setting [7]); 1 in series [1] (setting [8]); 1 in series [1] (setting [9]); 1 in series [1] (setting [10]); 0 in series [2] (setting [4]). For the same compound, the “Growth Rate” value is recorded as 1 in series [2] (setting [11]); 1 in series [2] (setting [8]); 1 in series [2] (setting [9]); 0 in series [2] (setting [10]); 1 in series [2] (setting [6]); 0 in series [3] (setting [4]). Besides, the “Growth Rate” value in series [3] (setting [7]), in series [3] (setting [8]), in series [3] (setting [9]) and in series [3] (setting [10]) was 0 throughout.

With `Cc1nc2sccn2c(=O)c1CCN1CCC(=C(c2ccc(F)cc2)c2ccc(F)cc2)CC1` [RITANSERIN], the “Growth Rate” value in series [1] (setting [4]) is listed as 0; in series [1] (setting [7]) it was 1; in series [1] (setting [11]) it was 0; in series [1] (setting [8]), 1; in series [1] (setting [13]) it was 0; in series [1] (setting [9]) it was 0. The “Growth Rate” value is listed as 0 in series [1] (setting [10]); 1 in series [2] (setting [4]); 0 in series [2] (setting [5]); 1 in series [2] (setting [8]); 1 in series [2] (setting [9]); 1 in series [2] (setting [10]). The “Growth Rate” value in series [3] (setting [4]), in series [3] (setting [7]), in series [3] (setting [8]), in series [3] (setting [9]) and in series [3] (setting [10]) was 0 in each case.

Regarding `C[C@@H]1CCc2ncc(F)cc2[C@H]2CCCN2c2ccn3ncc(c3n2)C(=O)N1` [SELITRECTINIB], the “Growth Rate” value stood at 0 in series [1] (setting [4]); 1 in series [1] (setting [5]); 0 in series [1] (setting [7]); 0 in series [1] (setting [8]); 0 in series [1] (setting [9]); 1 in series [1] (setting [12]). In addition, the “Growth Rate” value in series [1] (setting [10]) is given as 0; in series [2] (setting [4]), 1; in series [2] (setting [7]), 0; in series [2] (setting [8]) it was 1; in series [2] (setting [13]), 0; in series [2] (setting [9]), 0. Also, the “Growth Rate” value in series [2] (setting [10]) worked out at 1; in series [2] (setting [6]), 0; in series [3] (setting [5]), 0; in series [3] (setting [7]), 1; in series [3] (setting [11]), 0; in series [3] (setting [8]), 1. For the same compound, the “Growth Rate” value came out at 0 in series [3] (setting [13]); 1 in series [3] (setting [9]); 0 in series [3] (setting [12]); 1 in series [3] (setting [10]); 0 in series [3] (setting [6]).

On to `COc1cccc(CNC(=O)c2nc3scc(CN(C)Cc4ccccc4)c3c(=O)[nH]2)c1` [T-26f], for which the “Growth Rate” value in series [1] (setting [4]) worked out at 0; in series [1] (setting [5]) it was 1; in series [2] (setting [4]), 0; in series [2] (setting [7]), 1; in series [2] (setting [8]) it was 1; in series [2] (setting [9]), 1. In addition, the “Growth Rate” value stood at 0 in series [2] (setting [12]); 1 in series [2] (setting [10]); 0 in series [3] (setting [4]); 0 in series [3] (setting [7]); 0 in series [3] (setting [8]); 1 in series [3] (setting [13]). Besides, the “Growth Rate” value was 0 in series [3] (setting [9]), 1 in series [3] (setting [12]), 0 in series [3] (setting [10]) and 1 in series [3] (setting [6]).
